The values below come from patent US8614327B2 (Vertex Pharmaceuticals Incorporated, priority 2004, dated 2013).

Some results are limits rather than exact numbers.

For this assay, the target named is T1, ΔF508-CFTR (Homo sapiens, UniProt P13569, DEL508-508).
T1 construct: expressed in transfected cells
Nature of the assay: Membrane potential optical (FRET/VIPR) assay, identification of potentiator compounds. As to conditions: Table 3, assay not given; for % Activity: relative efficacy. In kind it is cell-based. Summed up:
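Double-addition potentiator screen: compound delivered in gluconate-substituted Cl^--free medium, membrane potential followed via CC2-DMPE/DiSBAC2(3) FRET on VIPR. Cells were ΔF508-CFTR-expressing NIH3T3 mouse fibroblasts, held 2 h at 37° C. then 24 h at 27° C. before assay.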

T1 sequence (P13569 with tags, fused parts or gaps DEL508-508): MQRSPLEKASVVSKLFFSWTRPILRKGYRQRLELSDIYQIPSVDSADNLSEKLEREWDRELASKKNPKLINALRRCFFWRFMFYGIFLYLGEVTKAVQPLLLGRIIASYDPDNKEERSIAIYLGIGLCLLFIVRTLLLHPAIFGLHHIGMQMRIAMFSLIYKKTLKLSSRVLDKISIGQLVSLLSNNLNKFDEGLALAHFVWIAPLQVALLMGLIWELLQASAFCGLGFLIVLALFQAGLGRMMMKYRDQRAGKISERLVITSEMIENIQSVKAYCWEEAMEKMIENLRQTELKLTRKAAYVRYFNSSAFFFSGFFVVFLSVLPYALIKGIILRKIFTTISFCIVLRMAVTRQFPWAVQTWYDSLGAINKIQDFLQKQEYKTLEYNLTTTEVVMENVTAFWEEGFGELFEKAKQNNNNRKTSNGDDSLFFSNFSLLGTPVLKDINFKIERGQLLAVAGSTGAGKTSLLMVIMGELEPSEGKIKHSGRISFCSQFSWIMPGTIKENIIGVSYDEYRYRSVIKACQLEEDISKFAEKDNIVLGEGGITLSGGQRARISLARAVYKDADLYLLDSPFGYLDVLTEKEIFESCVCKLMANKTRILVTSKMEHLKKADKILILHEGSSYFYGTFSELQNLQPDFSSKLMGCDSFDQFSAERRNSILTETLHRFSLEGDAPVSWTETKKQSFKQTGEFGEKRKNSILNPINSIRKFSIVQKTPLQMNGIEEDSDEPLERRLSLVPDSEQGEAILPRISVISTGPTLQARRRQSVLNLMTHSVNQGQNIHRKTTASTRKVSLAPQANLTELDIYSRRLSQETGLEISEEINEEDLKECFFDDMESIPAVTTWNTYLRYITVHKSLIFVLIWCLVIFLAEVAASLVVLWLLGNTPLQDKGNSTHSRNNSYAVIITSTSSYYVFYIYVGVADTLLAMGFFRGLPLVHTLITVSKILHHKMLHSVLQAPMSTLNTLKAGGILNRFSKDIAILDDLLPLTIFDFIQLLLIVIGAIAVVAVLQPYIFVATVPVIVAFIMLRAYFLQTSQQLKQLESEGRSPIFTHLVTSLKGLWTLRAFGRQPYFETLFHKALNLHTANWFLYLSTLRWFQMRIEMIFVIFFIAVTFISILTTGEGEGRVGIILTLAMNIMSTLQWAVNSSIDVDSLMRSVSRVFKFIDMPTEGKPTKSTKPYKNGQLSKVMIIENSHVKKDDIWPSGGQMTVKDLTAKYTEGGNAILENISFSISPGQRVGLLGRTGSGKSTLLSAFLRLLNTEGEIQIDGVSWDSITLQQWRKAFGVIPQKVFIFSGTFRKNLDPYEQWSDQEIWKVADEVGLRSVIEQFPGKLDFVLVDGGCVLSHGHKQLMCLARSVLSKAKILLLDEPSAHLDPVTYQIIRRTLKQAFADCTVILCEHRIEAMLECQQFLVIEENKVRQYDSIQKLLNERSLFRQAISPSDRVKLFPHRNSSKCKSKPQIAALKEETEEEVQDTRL

As usually defined, the EC50 is the midpoint of the concentration-response curve. For the compound `CCOc1ccccc1-c1ccc(CNC(=O)OC(C)(C)C)cc1NC(=O)c1c[nH]c2ccccc2c1=O` [Compound 304, {2′-Ethoxy-2-[(4-oxo-1,4-dihydroquinoline-3-carbonyl)-amino]-biphenyl-4-ylmethyl}-carbamic acid tert-butyl ester], the 50% effective concentration (EC50) is less than 10 µM and the “% Activity” value was “++ (between 25% to 100%)”.

Turning to `COc1ccc(-c2ccccc2NC(=O)c2c[nH]c3ccccc3c2=O)cc1` [Compound 305, N-[2-(4-methoxyphenyl)phenyl]-4-oxo-1H-quinoline-3-carboxamide], the EC50 is less than 10 µM and the “% Activity” value is given as “+++ (>100%)”. As to `CCOc1cccc(-c2ccccc2NC(=O)c2c[nH]c3ccccc3c2=O)c1` [Compound 306, N-[2-(3-ethoxyphenyl)phenyl]-4-oxo-1H-quinoline-3-carboxamide], the EC50 is less than 10 µM and the “% Activity” value is listed as “+++ (>100%)”. `O=C(Nc1ccccc1-c1cccc(Cl)c1)c1c[nH]c2ccccc2c1=O` [Compound 307, N-[2-(3-chlorophenyl)phenyl]-4-oxo-1H-quinoline-3-carboxamide]: the EC50 was less than 10 µM and the “% Activity” value is on record as “++ (between 25% to 100%)”. In the same order, the values of `N#CCc1ccccc1NC(=O)c1c[nH]c2ccccc2c1=O` [Compound 308, N-[2-(cyanomethyl)phenyl]-4-oxo-1H-quinoline-3-carboxamide] are 10 to 25 µM and “++ (between 25% to 100%)”. With `O=C(Nc1cc2ccccc2cn1)c1c[nH]c2ccccc2c1=O` [Compound 309, N-(3-isoquinolyl)-4-oxo-1H-quinoline-3-carboxamide], the 50% effective concentration (EC50) is 25 to 60 µM and the “% Activity” value is given as “+ (<25%)”.

Turning to `CCC(C)c1ccc(NC(=O)c2c[nH]c3ccccc3c2=O)cc1` (stereo not drawn) [Compound 310, 4-oxo-N-(4-sec-butylphenyl)-1H-quinoline-3-carboxamide], the EC50 is less than 10 µM and the “% Activity” value is “++ (between 25% to 100%)”. Take `Cc1ccc(-c2ccccc2NC(=O)c2c[nH]c3ccccc3c2=O)o1` [Compound 311, N-[2-(5-methyl-2-furyl)phenyl]-4-oxo-1H-quinoline-3-carboxamide]: the EC50 was less than 10 µM and the “% Activity” value is reported as “++ (between 25% to 100%)”. As to `COc1ccc(-c2ccccc2NC(=O)c2c[nH]c3ccccc3c2=O)c(OC)c1` [Compound 312, N-[2-(2,4-dimethoxyphenyl)phenyl]-4-oxo-1H-quinoline-3-carboxamide], the EC50 is less than 10 µM and the “% Activity” value is reported as “++ (between 25% to 100%)”. In the same order, the values of `O=C(Nc1ccccc1-c1ccccc1F)c1c[nH]c2ccccc2c1=O` [Compound 313, N-[2-(2-fluorophenyl)phenyl]-4-oxo-1H-quinoline-3-carboxamide] are less than 10 µM and “++ (between 25% to 100%)”. As to `CCc1cccc(C(C)C)c1NC(=O)c1c[nH]c2ccccc2c1=O` [Compound 314, N-(2-ethyl-6-isopropyl-phenyl)-4-oxo-1H-quinoline-3-carboxamide], the “% Activity” value was “++ (between 25% to 100%)”.

As to `Cc1cccc(C)c1NC(=O)c1c[nH]c2ccccc2c1=O` [Compound 315, N-(2,6-dimethylphenyl)-4-oxo-1H-quinoline-3-carboxamide], the EC50 is less than 10 µM and the “% Activity” value is “++ (between 25% to 100%)”.

Consider `CC(=O)Nc1ccc(C(C)(C)C)c(NC(=O)c2c[nH]c3ccccc3c2=O)c1` [Compound 316, N-(5-acetylamino-2-tert-butyl-phenyl)-4-oxo-1H-quinoline-3-carboxamide], for which the EC50 lay within 10 to 25 µM and the “% Activity” value is reported as “++ (between 25% to 100%)”. In the case of `O=C(Nc1c(Cl)cccc1Cl)c1c[nH]c2ccccc2c1=O` [Compound 317, N-(2,6-dichlorophenyl)-4-oxo-1H-quinoline-3-carboxamide], the concentration for a half-maximal effect (EC50) is less than 10 µM and the “% Activity” value is reported as “++ (between 25% to 100%)”. In the same order, the values of `O=C(Nc1cc(NS(=O)(=O)CCN2CCCCC2)cc(C(F)(F)F)c1)c1c[nH]c2ccccc2c1=O` [Compound 318, 4-Oxo-N-[3-[2-(1-piperidyl)ethylsulfonylamino]-5-(trifluoromethyl)phenyl]-1H-quinoline-3-carboxamide] are 10 to 25 µM and “++ (between 25% to 100%)”.

As for `CC(C)(C)c1cc(F)c(NC(=O)c2c[nH]c3ccc(F)cc3c2=O)cc1O` [Compound 319, 6-fluoro-N-(2-fluoro-5-hydroxy-4-tert-butyl-phenyl)-4-oxo-1H-quinoline-3-carboxamide], the EC50 was less than 10 µM and the “% Activity” value was “++ (between 25% to 100%)”. With `CC(C)(C)c1cc2ccc(NC(=O)c3c[nH]c4ccccc4c3=O)cc2[nH]1` [Compound 320, 4-oxo-N-(2-tert-butyl-1H-indol-6-yl)-1H-quinoline-3-carboxamide], the concentration giving a half-maximal response (EC50) is less than 10 µM and the “% Activity” value was “++ (between 25% to 100%)”. `O=C(Nc1ccccc1N1CCN(C(=O)c2ccccc2)CC1)c1c[nH]c2ccccc2c1=O` [Compound 321, N-[2-(4-benzoylpiperazin-1-yl)phenyl]-4-oxo-1H-quinoline-3-carboxamide]: the EC50 is less than 10 µM and the “% Activity” value was “++ (between 25% to 100%)”.

For the compound `CCc1cccc(C(C)CC)c1NC(=O)c1c[nH]c2ccccc2c1=O` (stereo not drawn) [Compound 322, N-(2-ethyl-6-sec-butyl-phenyl)-4-oxo-1H-quinoline-3-carboxamide], the EC50 is less than 10 µM and the “% Activity” value is on record as “++ (between 25% to 100%)”. Turning to `COC(=O)NCC(C)(C)c1ccc(NC(=O)c2c[nH]c3ccccc3c2=O)cc1` [Compound 323, [2-Methyl-2-[4-[(4-oxo-1H-quinolin-3-yl)carbonylamino]phenyl]-propyl]aminoformic acid methyl ester], the concentration giving a half-maximal response (EC50) is less than 10 µM and the “% Activity” value was “++ (between 25% to 100%)”. Take `CCCCc1ccc(NC(=O)c2c[nH]c3ccccc3c2=O)cc1` [Compound 324, N-(4-butylphenyl)-4-oxo-1H-quinoline-3-carboxamide]: the EC50 was less than 10 µM and the “% Activity” value was “++ (between 25% to 100%)”.

Turning to `CCc1cccc(CC)c1NC(=O)c1c[nH]c2ccccc2c1=O` [Compound 325, N-(2,6-diethylphenyl)-4-oxo-1H-quinoline-3-carboxamide], the EC50 was less than 10 µM and the “% Activity” value was “++ (between 25% to 100%)”. As to `CS(=O)(=O)c1ccc(-c2ccccc2NC(=O)c2c[nH]c3ccccc3c2=O)cc1` [Compound 326, N-[2-(4-methylsulfonylphenyl)phenyl]-4-oxo-1H-quinoline-3-carboxamide], the concentration for a half-maximal effect (EC50) was 10 to 25 µM and the “% Activity” value is given as “++ (between 25% to 100%)”. For `CCOc1ccccc1-c1cc2cc[nH]c2cc1NC(=O)c1c[nH]c2ccccc2c1=O` [Compound 327, N-[5-(2-ethoxyphenyl)-1H-indol-6-yl]-4-oxo-1H-quinoline-3-carboxamide], in that order: less than 10 µM and “++ (between 25% to 100%)”. `CC(=O)c1cccc(NC(=O)c2c[nH]c3ccccc3c2=O)c1` [Compound 328, N-(3-acetylphenyl)-4-oxo-1H-quinoline-3-carboxamide]: the half-maximal effective concentration (EC50) fell in the range of 25 to 60 µM and the “% Activity” value is given as “+ (<25%)”.

As to `Cc1ccccc1-c1nc2cc(NC(=O)c3c[nH]c4ccccc4c3=O)ccc2o1` [Compound 329, N-[2-(o-tolyl)benzooxazol-5-yl]-4-oxo-1H-quinoline-3-carboxamide], the concentration giving a half-maximal response (EC50) was in the range of 10 to 25 µM and the “% Activity” value was “++ (between 25% to 100%)”.

As to `O=C(Nc1ccccc1Cl)c1c[nH]c2ccccc2c1=O` [Compound 330, N-(2-chlorophenyl)-4-oxo-1H-quinoline-3-carboxamide], the EC50 is less than 10 µM and the “% Activity” value is on record as “++ (between 25% to 100%)”. For `NC(=O)c1ccccc1NC(=O)c1c[nH]c2ccccc2c1=O` [Compound 331, N-(2-carbamoylphenyl)-4-oxo-1H-quinoline-3-carboxamide], the concentration giving a half-maximal response (EC50) was in the range of 25 to 60 µM and the “% Activity” value is “+ (<25%)”. Consider `C#Cc1ccc(NC(=O)c2c[nH]c3ccccc3c2=O)cc1` [Compound 332, N-(4-ethynylphenyl)-4-oxo-1H-quinoline-3-carboxamide], for which the EC50 was less than 10 µM and the “% Activity” value is “++ (between 25% to 100%)”.

Take `N#CCc1ccc(-c2ccccc2NC(=O)c2c[nH]c3ccccc3c2=O)cc1` [Compound 333, N-[2-[4-(cyanomethyl)phenyl]phenyl]-4-oxo-1H-quinoline-3-carboxamide]: the “% Activity” value is “++ (between 25% to 100%)”.

As for `CC(=O)N1CCC2(CCN(C(=O)OC(C)(C)C)CC2)c2ccc(NC(=O)c3c[nH]c4ccccc4c3=O)cc21` [Compound 334, 7′-[(4-oxo-1H-quinolin-3-ylcarbonyl)amino]-spiro[piperidine-4,4′(1′H)-1-acetyl-quinoline], 2′,3′-dihydro-carboxylic acid tert-butyl ester], the concentration giving a half-maximal response (EC50) fell in the range of 10 to 25 µM and the “% Activity” value is listed as “++ (between 25% to 100%)”. `Cc1ccc(C(N)=O)c(NC(=O)c2c[nH]c3ccccc3c2=O)c1` [Compound 335, N-(2-carbamoyl-5-methyl-phenyl)-4-oxo-1H-quinoline-3-carboxamide]: the EC50 lay within 25 to 60 µM and the “% Activity” value is on record as “+ (<25%)”. For `CCCCc1ccccc1NC(=O)c1c[nH]c2ccccc2c1=O` [Compound 336, N-(2-butylphenyl)-4-oxo-1H-quinoline-3-carboxamide], the EC50 is less than 10 µM and the “% Activity” value was “++ (between 25% to 100%)”. As for `CN(C(=O)c1c[nH]c2ccccc2c1=O)c1cc(O)c(C(C)(C)C)cc1C(C)(C)C` [Compound 337, N-(5-hydroxy-2,4-ditert-butyl-phenyl)-N-methyl-4-oxo-1H-quinoline-3-carboxamide], the EC50 is less than 10 µM and the “% Activity” value is “++ (between 25% to 100%)”.
